Laboratory results taken from ChEMBL document CHEMBL1201862, “PubChem BioAssay data set” (2004).
Where “and” joins values, the source holds several entries; their conditions need not be identical. Equal entries are not always repeated. Calls of active or inactive are those of the source.

Tests used:
Format in all cases: functional
[1] = target: Sphingosine 1-phosphate receptor 2 (Homo sapiens, UniProt O95136); test: Dose Response Cell Based Assay for Antagonists of the S1P2 Receptor. [Related pubchem assays: 856, 736 ]
Sequence of Sphingosine 1-phosphate receptor 2 (O95136 whole entry): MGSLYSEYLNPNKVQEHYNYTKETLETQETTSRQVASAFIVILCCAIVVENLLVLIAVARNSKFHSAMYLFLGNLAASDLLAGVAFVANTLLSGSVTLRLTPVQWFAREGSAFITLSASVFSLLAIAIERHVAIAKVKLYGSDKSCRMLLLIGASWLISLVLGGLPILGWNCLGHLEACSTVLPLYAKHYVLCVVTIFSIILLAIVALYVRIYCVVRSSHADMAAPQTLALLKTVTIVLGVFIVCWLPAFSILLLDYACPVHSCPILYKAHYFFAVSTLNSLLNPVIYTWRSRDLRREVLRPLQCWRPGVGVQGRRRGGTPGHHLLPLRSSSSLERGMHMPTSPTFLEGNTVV

[2] = target: E3 ubiquitin-protein ligase Mdm2 (Homo sapiens, UniProt Q00987); test: enhancers of MDM2-luciferase reporter signal, concentration-effect titration, project on inhibitors of MDM2 ubiquitin ligase, cellular assay, luminescent readout, 384-well plate format (AID 1394);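 also: MDM2 E3 inhibitors raise luminescence so EC50 is for signal enhancement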
Sequence of E3 ubiquitin-protein ligase Mdm2 (Q00987 whole entry): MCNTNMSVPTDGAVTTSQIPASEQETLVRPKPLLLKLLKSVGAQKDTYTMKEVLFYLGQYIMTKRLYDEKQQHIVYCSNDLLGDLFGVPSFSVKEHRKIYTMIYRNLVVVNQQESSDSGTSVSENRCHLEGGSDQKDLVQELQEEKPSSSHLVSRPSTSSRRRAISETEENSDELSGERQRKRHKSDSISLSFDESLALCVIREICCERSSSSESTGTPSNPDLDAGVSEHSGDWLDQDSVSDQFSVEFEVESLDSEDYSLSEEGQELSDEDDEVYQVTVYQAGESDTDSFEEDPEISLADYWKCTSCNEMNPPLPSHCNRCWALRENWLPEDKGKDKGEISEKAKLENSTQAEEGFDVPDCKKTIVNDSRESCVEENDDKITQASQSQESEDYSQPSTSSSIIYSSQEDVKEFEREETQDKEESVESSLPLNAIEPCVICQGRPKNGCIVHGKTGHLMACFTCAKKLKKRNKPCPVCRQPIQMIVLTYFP

[3] = target: T1, Tyrosine-protein phosphatase non-receptor type 7 (Homo sapiens, UniProt P35236); test: inhibitors of human HePTP phosphatase, […], biochemical, absorbance, leukemia target (AID 521)
T1 sequence (P35236 whole entry): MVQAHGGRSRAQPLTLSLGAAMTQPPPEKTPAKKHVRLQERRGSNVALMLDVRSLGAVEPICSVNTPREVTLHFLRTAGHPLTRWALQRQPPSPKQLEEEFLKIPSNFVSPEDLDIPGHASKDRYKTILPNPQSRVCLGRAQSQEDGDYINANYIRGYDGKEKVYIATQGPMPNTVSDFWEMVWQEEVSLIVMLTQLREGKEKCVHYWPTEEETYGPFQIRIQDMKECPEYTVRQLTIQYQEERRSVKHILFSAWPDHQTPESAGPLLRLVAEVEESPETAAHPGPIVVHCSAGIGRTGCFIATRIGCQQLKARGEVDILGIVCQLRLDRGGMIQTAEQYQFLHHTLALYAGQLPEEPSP

[4] = target: Diphosphomevalonate decarboxylase (Streptococcus pneumoniae serotype 2 (strain D39 / NCTC 7466), UniProt Q9FD53); test: S. pneumoniae DPM-DC inhibition retest, confirmation, biochemical, cuvette format, coupled NADH fluorescence (AID 1028)
Sequence of Diphosphomevalonate decarboxylase (Q9FD53 whole entry): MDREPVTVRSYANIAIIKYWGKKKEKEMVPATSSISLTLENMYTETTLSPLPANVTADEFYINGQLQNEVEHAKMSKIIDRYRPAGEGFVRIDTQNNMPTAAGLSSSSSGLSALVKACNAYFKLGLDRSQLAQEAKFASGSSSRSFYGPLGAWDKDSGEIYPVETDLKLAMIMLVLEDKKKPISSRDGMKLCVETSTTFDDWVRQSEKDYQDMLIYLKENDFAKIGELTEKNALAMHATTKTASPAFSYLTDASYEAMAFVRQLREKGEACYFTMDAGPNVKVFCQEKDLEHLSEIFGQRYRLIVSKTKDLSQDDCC

For `O=C(Nc1ccc(F)cc1)c1sc2cc(C(F)(F)F)cnc2c1-c1cccs1`, the IC50 [1] was 2.73 µM (active) and 2.06 µM (active).
With `Cc1nn(-c2nnc(NCc3ccccc3)nn2)c(C)c1Br` the EC50 [2] was 13.3 µM (not active).
`O=C(CCSCCC(=O)NCc1ccco1)NCc1ccco1` was tested, and the IC50 [3] was 4.15 µM (active).
For `O=C(NCCN1CCCC1)c1ccc(-n2sc3ccccc3c2=O)cc1`, the IC50 [4] was 33 µM (active).
